According to PubChem BioAssay (NCI):
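Test compounds were applied to cells in 96-well plates for 48 hours at 5 doses. Abbreviation: GI50, concentration required for 50% inhibition of growth. TGI denotes the concentration required for complete inhibition of growth.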

Assays:
Experiment in all cases: growth of human tumour cells (NCI), 48 h
HT29 colon = system: HT29 colon
M14 melanoma = system: M14 melanoma
SK-MEL-2 melanoma = system: SK-MEL-2 melanoma
NCI-H23 lung = system: NCI-H23 lung
UACC-62 melanoma = system: UACC-62 melanoma
NCI/ADR-RES ovarian = system: NCI/ADR-RES ovarian
SK-MEL-5 melanoma = system: SK-MEL-5 melanoma
HCT-116 colon = system: HCT-116 colon
NCI-H522 lung = system: NCI-H522 lung
786-0 renal = system: 786-0 renal
RXF 393 renal = system: RXF 393 renal
CAKI-1 renal = system: CAKI-1 renal
RPMI-8226 leukemia = system: RPMI-8226 leukemia
DU-145 prostate = system: DU-145 prostate
CCRF-CEM leukemia = system: CCRF-CEM leukemia
MALME-3M melanoma = system: MALME-3M melanoma
MDA-MB-231 breast = system: MDA-MB-231 breast
OVCAR-3 ovarian = system: OVCAR-3 ovarian
LOX IMVI melanoma = system: LOX IMVI melanoma
SR leukemia = system: SR leukemia
MCF7 breast = system: MCF7 breast
SK-MEL-28 melanoma = system: SK-MEL-28 melanoma
OVCAR-8 ovarian = system: OVCAR-8 ovarian
OVCAR-5 ovarian = system: OVCAR-5 ovarian
OVCAR-4 ovarian = system: OVCAR-4 ovarian
HL-60(TB) leukemia = system: HL-60(TB) leukemia
MOLT-4 leukemia = system: MOLT-4 leukemia
T-47D breast = system: T-47D breast
COLO 205 colon = system: COLO 205 colon
A549 NSCLC = system: A549 NSCLC
SNB-75 CNS = system: SNB-75 CNS
SF-295 CNS = system: SF-295 CNS
MDA-MB-435 = system: MDA-MB-435
HOP-62 NSCLC = system: HOP-62 NSCLC
BT-549 breast = system: BT-549 breast
K-562 leukemia = system: K-562 leukemia
HOP-92 NSCLC = system: HOP-92 NSCLC
KM12 colon = system: KM12 colon
TK-10 renal = system: TK-10 renal
HS 578T breast = system: HS 578T breast
SF-268 CNS = system: SF-268 CNS
EKVX NSCLC = system: EKVX NSCLC
SK-OV-3 ovarian = system: SK-OV-3 ovarian
HCC-2998 colon = system: HCC-2998 colon
UACC-257 melanoma = system: UACC-257 melanoma
U251 CNS = system: U251 CNS
SW-620 colon = system: SW-620 colon
SNB-19 CNS = system: SNB-19 CNS
NCI-H460 lung = system: NCI-H460 lung
A498 renal = system: A498 renal
MDA-MB-468 breast = system: MDA-MB-468 breast
ACHN renal = system: ACHN renal
SF-539 CNS = system: SF-539 CNS
UO-31 renal = system: UO-31 renal
PC-3 prostate = system: PC-3 prostate
SN12C renal = system: SN12C renal
NCI-H226 lung = system: NCI-H226 lung
HCT-15 colon = system: HCT-15 colon
IGROV1 ovarian = system: IGROV1 ovarian

## COc1ccc(-c2cc(C(=O)N=Nc3c(O)[nH]c4ccccc34)c3ccccc3n2)cc1
HT29 colon
  GI50: 3.59 µM
  TGI: 12.8 µM
M14 melanoma
  GI50: 4.3 µM
  TGI: 17.4 µM
SK-MEL-2 melanoma
  GI50: 16 µM
  TGI: 35.2 µM
NCI-H23 lung
  GI50: 2.91 µM
  TGI: 11.4 µM
UACC-62 melanoma
  GI50: 9.93 µM
  TGI: 21.8 µM
NCI/ADR-RES ovarian
  GI50: 3.48 µM
  TGI: 15 µM
SK-MEL-5 melanoma
  GI50: 12.1 µM
  TGI: 25 µM
HCT-116 colon
  GI50: 3.18 µM
  TGI: 10.7 µM
NCI-H522 lung
  GI50: 1.88 µM
  TGI: 4.71 µM
786-0 renal
  GI50: 6.88 µM
  TGI: 20.8 µM
RXF 393 renal
  GI50: 4.16 µM
  TGI: 15.4 µM
CAKI-1 renal
  GI50: 2.56 µM
  TGI: 11 µM
RPMI-8226 leukemia
  GI50: 9.32 µM
  TGI: > 100 µM
DU-145 prostate
  GI50: 3.27 µM
  TGI: 12.1 µM
CCRF-CEM leukemia
  GI50: 9.06 µM
  TGI: > 100 µM
MALME-3M melanoma
  GI50: 3.14 µM
  TGI: 9.99 µM
MDA-MB-231 breast
  GI50: 2.8 µM
  TGI: 10.2 µM
OVCAR-3 ovarian
  GI50: 3.63 µM
  TGI: 14.4 µM
LOX IMVI melanoma
  GI50: 6.17 µM
  TGI: 19.3 µM
SR leukemia
  GI50: 4.05 µM
  TGI: > 100 µM
MCF7 breast
  GI50: 10.7 µM
  TGI: 26.3 µM
SK-MEL-28 melanoma
  GI50: 4.26 µM
  TGI: 14.7 µM
OVCAR-8 ovarian
  GI50: 3.13 µM
  TGI: 12.4 µM
OVCAR-5 ovarian
  GI50: 5.75 µM
  TGI: 18.6 µM
OVCAR-4 ovarian
  GI50: 5.24 µM
  TGI: 20.9 µM
HL-60(TB) leukemia
  GI50: 13.1 µM
  TGI: > 100 µM
MOLT-4 leukemia
  GI50: 4.93 µM
  TGI: > 100 µM
T-47D breast
  GI50: 8.61 µM
  TGI: 27.2 µM
COLO 205 colon
  GI50: 11.6 µM
  TGI: 26.6 µM
A549 NSCLC
  GI50: 2.08 µM
  TGI: 4.78 µM
SNB-75 CNS
  GI50: 1.94 µM
  TGI: 15.1 µM
SF-295 CNS
  GI50: 11.2 µM
  TGI: 24 µM
MDA-MB-435
  GI50: 3.04 µM
  TGI: 12.1 µM
HOP-62 NSCLC
  GI50: 4.19 µM
  TGI: 17.8 µM
BT-549 breast
  GI50: 14.5 µM
  TGI: 29 µM
K-562 leukemia
  GI50: 4.53 µM
  TGI: > 100 µM
HOP-92 NSCLC
  GI50: 3.26 µM
  TGI: 16.7 µM
KM12 colon
  GI50: 11.1 µM
  TGI: 28.3 µM
TK-10 renal
  GI50: 17.9 µM
  TGI: 32.9 µM
HS 578T breast
  GI50: 14 µM
  TGI: 65.7 µM
SF-268 CNS
  GI50: 4.43 µM
  TGI: 20.8 µM
EKVX NSCLC
  TGI: 22.5 µM
SK-OV-3 ovarian
  GI50: 11.6 µM
  TGI: 24.8 µM
HCC-2998 colon
  GI50: 3.87 µM
  TGI: 13.1 µM
UACC-257 melanoma
  GI50: 9.71 µM
  TGI: 24.1 µM
U251 CNS
  GI50: 2.34 µM
  TGI: 6.37 µM
SW-620 colon
  GI50: 3.91 µM
  TGI: 17.5 µM
SNB-19 CNS
  GI50: 11 µM
  TGI: 23 µM
NCI-H460 lung
  GI50: 3.32 µM
  TGI: 11.4 µM
A498 renal
  GI50: 21.4 µM
  TGI: 38.6 µM
MDA-MB-468 breast
  GI50: 4.94 µM
  TGI: 17.3 µM
ACHN renal
  GI50: 11 µM
  TGI: 22.9 µM
SF-539 CNS
  GI50: 3.2 µM
  TGI: 10.2 µM
UO-31 renal
  GI50: 6 µM
  TGI: 20.1 µM
PC-3 prostate
  GI50: 5.2 µM
  TGI: 27.4 µM
SN12C renal
  GI50: 11.3 µM
  TGI: 24.4 µM
NCI-H226 lung
  GI50: 4.1 µM
  TGI: 19.4 µM
HCT-15 colon
  GI50: 10.3 µM
  TGI: 24.7 µM
IGROV1 ovarian
  GI50: 5.07 µM
  TGI: 18.3 µM

## COc1ccc(C(=O)/C=C/c2cc(C(F)(F)F)cc(C(F)(F)F)c2)cc1S(N)(=O)=O
HT29 colon
  GI50: 1.26 µM
  TGI: 2.77 µM
M14 melanoma
  GI50: 1.92 µM
  TGI: 4.85 µM
SK-MEL-2 melanoma
  GI50: 1.74 µM
  TGI: 3.25 µM
NCI-H23 lung
  GI50: 1.55 µM
  TGI: 3.01 µM
UACC-62 melanoma
  GI50: 1.51 µM
  TGI: 3 µM
NCI/ADR-RES ovarian
  GI50: 1.51 µM
  TGI: 3.72 µM
SK-MEL-5 melanoma
  GI50: 1.73 µM
  TGI: 3.15 µM
HCT-116 colon
  GI50: 0.655 µM
  TGI: 2.3 µM
NCI-H522 lung
  GI50: 1.56 µM
  TGI: 3.24 µM
786-0 renal
  GI50: 1.64 µM
  TGI: 3.32 µM
RXF 393 renal
  GI50: 1.76 µM
  TGI: 3.34 µM
CAKI-1 renal
  GI50: 1.58 µM
  TGI: 3.36 µM
RPMI-8226 leukemia
  GI50: 0.558 µM
  TGI: > 100 µM
DU-145 prostate
  GI50: 2.05 µM
  TGI: 4.83 µM
CCRF-CEM leukemia
  GI50: 0.299 µM
  TGI: > 100 µM
MALME-3M melanoma
  GI50: 1.81 µM
  TGI: 3.33 µM
MDA-MB-231 breast
  GI50: 1.57 µM
  TGI: 3.11 µM
OVCAR-3 ovarian
  GI50: 1.56 µM
  TGI: 3.31 µM
LOX IMVI melanoma
  GI50: 0.573 µM
  TGI: 1.78 µM
SR leukemia
  GI50: 0.498 µM
  TGI: > 100 µM
MCF7 breast
  GI50: 0.439 µM
  TGI: 1.68 µM
SK-MEL-28 melanoma
  GI50: 1.67 µM
  TGI: 3.07 µM
OVCAR-8 ovarian
  GI50: 1.49 µM
  TGI: 3.87 µM
OVCAR-5 ovarian
  GI50: 1.84 µM
  TGI: 3.36 µM
OVCAR-4 ovarian
  GI50: 1.85 µM
  TGI: 4.44 µM
HL-60(TB) leukemia
  GI50: 1.75 µM
  TGI: 6.29 µM
MOLT-4 leukemia
  GI50: 1.79 µM
  TGI: 9.16 µM
T-47D breast
  GI50: 1.69 µM
  TGI: 3.55 µM
COLO 205 colon
  GI50: 2.02 µM
  TGI: 3.94 µM
A549 NSCLC
  GI50: 1.83 µM
  TGI: 5.64 µM
SNB-75 CNS
  GI50: 1.38 µM
  TGI: 3.33 µM
SF-295 CNS
  GI50: 1.7 µM
  TGI: 3.1 µM
MDA-MB-435
  GI50: 1.35 µM
  TGI: 2.97 µM
HOP-62 NSCLC
  GI50: 2.22 µM
  TGI: 4.4 µM
BT-549 breast
  GI50: 2.27 µM
  TGI: 3.93 µM
K-562 leukemia
  GI50: 0.788 µM
  TGI: > 100 µM
HOP-92 NSCLC
  GI50: 1.98 µM
  TGI: 5.8 µM
KM12 colon
  GI50: 2.07 µM
  TGI: 4.92 µM
TK-10 renal
  GI50: 2.05 µM
  TGI: 3.86 µM
HS 578T breast
  GI50: 2.68 µM
  TGI: 9.86 µM
SF-268 CNS
  GI50: 2.38 µM
  TGI: 7.48 µM
EKVX NSCLC
  GI50: 1.58 µM
  TGI: 2.97 µM
SK-OV-3 ovarian
  GI50: 3.65 µM
  TGI: 16.3 µM
HCC-2998 colon
  GI50: 1.54 µM
  TGI: 2.87 µM
UACC-257 melanoma
  GI50: 1.51 µM
  TGI: 3.18 µM
U251 CNS
  GI50: 1.29 µM
  TGI: 2.62 µM
SW-620 colon
  GI50: 1.03 µM
  TGI: 2.44 µM
SNB-19 CNS
  GI50: 1.6 µM
  TGI: 2.98 µM
NCI-H460 lung
  GI50: 1.56 µM
  TGI: 3.28 µM
A498 renal
  GI50: 16.9 µM
  TGI: 30.5 µM
MDA-MB-468 breast
  GI50: 1.54 µM
  TGI: 2.91 µM
ACHN renal
  GI50: 1.54 µM
  TGI: 2.91 µM
SF-539 CNS
  GI50: 1.68 µM
  TGI: 3.07 µM
UO-31 renal
  GI50: 1.45 µM
  TGI: 2.76 µM
PC-3 prostate
  GI50: 2.19 µM
  TGI: 5.99 µM
SN12C renal
  GI50: 1.47 µM
  TGI: 2.86 µM
NCI-H226 lung
  GI50: 2.14 µM
  TGI: 4.59 µM
HCT-15 colon
  GI50: 0.893 µM
  TGI: 2.38 µM
IGROV1 ovarian
  GI50: 1.74 µM
  TGI: 3.32 µM
